Earlier results, collected in patent EP0656010B1, “Use of peptides causing a immune response for the preparation of medicaments to induce the suppression of the immune reaction” (priority 1992, dated 2001).

Test system: sujets infectés par les VIH-1
Conditions: subjects infected with HIV-1

Sequence	réponse immunitaire cellulaire dirigée contre le peptide
GGEFFYCNSTQL	réponse immunitaire cellulaire
SVEINCTRPNNNTRKSI	réponse immunitaire cellulaire
